Structures can show the parent of a compound that is named as a salt.
Target: S. aureus GyrB ATPase (Staphylococcus aureus, UniProt P0A0K8)
Assay: S. aureus (SAU) GyrB ATPase inhibition, malachite green phosphate detection (E. coli GyrA + S. aureus GyrB)
Format: biochemical
Conditions: compound concentration of 1.0 μM unless otherwise noted; average value where assay was carried out more than once; read-out: S. aureus (SAU) GyrB ATPase % Inhibition
Summary of the method: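 Phosphate from ATP hydrolysis (500 μM ATP) read as malachite green/molybdate absorbance at 650 nm after acid quench. Reaction: 1.25 nM S. aureus GyrB plus 1.25 nM E. coli GyrA, sheared DNA, Hepes pH 7.5 with Mg2+. IC50 fitted over 10 concentrations, normalised to DMSO (2%) and novobiocin (2 μM) controls.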

Chain of S. aureus GyrB ATPase (P0A0K8 whole entry): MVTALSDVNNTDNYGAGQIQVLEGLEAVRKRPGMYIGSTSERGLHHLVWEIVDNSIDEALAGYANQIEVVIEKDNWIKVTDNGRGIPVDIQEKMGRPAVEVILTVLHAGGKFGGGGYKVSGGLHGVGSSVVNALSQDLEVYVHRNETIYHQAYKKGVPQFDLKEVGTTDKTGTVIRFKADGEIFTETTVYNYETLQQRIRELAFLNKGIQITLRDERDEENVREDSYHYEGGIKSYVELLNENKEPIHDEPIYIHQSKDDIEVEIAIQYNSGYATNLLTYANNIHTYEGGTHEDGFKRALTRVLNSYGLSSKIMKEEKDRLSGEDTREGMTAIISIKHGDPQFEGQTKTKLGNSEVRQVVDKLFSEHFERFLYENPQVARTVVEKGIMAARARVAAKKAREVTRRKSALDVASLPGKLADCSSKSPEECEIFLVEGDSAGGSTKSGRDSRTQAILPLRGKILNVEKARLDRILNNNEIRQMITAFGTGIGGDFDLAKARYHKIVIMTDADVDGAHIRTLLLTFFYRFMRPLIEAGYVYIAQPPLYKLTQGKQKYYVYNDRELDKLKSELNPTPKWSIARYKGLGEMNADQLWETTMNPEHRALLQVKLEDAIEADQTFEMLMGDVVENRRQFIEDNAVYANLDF
Chain of S. aureus GyrB ATPase (P0AES4 whole entry, further chain): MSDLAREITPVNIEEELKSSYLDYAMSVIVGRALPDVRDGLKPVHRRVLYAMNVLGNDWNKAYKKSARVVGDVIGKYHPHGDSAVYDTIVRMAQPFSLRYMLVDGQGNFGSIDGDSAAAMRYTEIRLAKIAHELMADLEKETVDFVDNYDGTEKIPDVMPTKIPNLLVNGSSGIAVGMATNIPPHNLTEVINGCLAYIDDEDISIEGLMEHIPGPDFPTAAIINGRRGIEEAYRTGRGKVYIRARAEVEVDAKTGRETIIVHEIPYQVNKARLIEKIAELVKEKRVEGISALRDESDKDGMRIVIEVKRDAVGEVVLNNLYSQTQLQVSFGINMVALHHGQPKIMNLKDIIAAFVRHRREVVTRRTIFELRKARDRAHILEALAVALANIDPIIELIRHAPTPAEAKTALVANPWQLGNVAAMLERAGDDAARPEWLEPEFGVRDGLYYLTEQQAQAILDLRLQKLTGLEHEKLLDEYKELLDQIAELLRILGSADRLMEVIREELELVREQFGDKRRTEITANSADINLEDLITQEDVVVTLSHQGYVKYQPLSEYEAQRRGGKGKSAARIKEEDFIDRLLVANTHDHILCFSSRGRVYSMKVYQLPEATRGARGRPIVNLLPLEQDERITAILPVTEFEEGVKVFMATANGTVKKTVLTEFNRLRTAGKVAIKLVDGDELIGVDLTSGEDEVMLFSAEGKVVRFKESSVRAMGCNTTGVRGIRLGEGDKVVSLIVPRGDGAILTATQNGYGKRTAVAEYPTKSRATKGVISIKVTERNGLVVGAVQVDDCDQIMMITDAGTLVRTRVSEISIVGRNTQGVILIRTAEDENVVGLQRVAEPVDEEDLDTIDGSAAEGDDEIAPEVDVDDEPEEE

Structure (SMILES) | inhibition at 1 µM [%]
CCCNC(=O)Nc1cc(-c2nc(C(F)(F)F)cs2)c(-c2cc(-c3nnc(C)o3)cnc2OCCN(C(C)C)C(C)C)cn1 [Example 123, 1-(2′-(2-(Diisopropylamino)ethoxy)-5′-(5-methyl-1,3,4-oxadiazol-2-yl)-4-(4-(trifluoromethyl)thiazol-2-yl)-3,3′-bipyridin-6-yl)-3-propylurea] | 78
CCNC(=O)Nc1cc(-c2nc(C(F)(F)F)cs2)c(-c2nc(-c3ncnn3C)c(-c3nnc(C)o3)s2)cn1 [Example 137, 1-Ethyl-3-(5-(5-(5-methyl-1,3,4-oxadiazol-2-yl)-4-(1-methyl-1H-1,2,4-triazol-5-yl)thiazol-2-yl)-4-(4-(trifluoromethyl)thiazol-2-yl)pyridin-2-yl)urea] | 101
CCNC(=O)Nc1cc(-c2nc(-c3ccccc3)cs2)c(-c2cncc(-c3nnc(C)o3)c2)cn1 [Example 94, 1-ethyl-3-(5′-(5-methyl-1,3,4-oxadiazol-2-yl)-4-(4-phenylthiazol-2-yl)-3,3′-bipyridin-6-yl)urea] | 98
CCNC(=O)Nc1cc(-c2nc(C(F)(F)F)cs2)c(-c2cc(-c3n[nH]c(=O)o3)cnc2OC2C[C@H]3CC[C@@H](C2)N3C)cn1 (stereo partly drawn) [Example 227] | 100
CCNC(=O)Nc1cc(-c2nc(C(F)(F)F)c(C)s2)c(-c2cncc(-c3n[nH]c(=O)o3)c2)cn1 [Example 145] | 100
CCNC(=O)Nc1cc(-c2nc(C(F)(F)F)cs2)c(-c2cncc(-c3nnc(COC)o3)c2)cn1 [Example 270, 1-ethyl-3-(5′-(5-(methoxymethyl)-1,3,4-oxadiazol-2-yl)-4-(4-(trifluoromethyl)thiazol-2-yl)-3,3′-bipyridin-6-yl)urea] | 97
CCCNC(=O)Nc1cc(-c2nc(C(F)(F)F)cs2)c(-c2cncc(-c3nnc(C)o3)c2)cn1 [Example 173, 1-(5′-(5-methyl-1,3,4-oxadiazol-2-yl)-4-(4-(trifluoromethyl)thiazol-2-yl)-3,3′-bipyridin-6-yl)-3-propylurea] | 95
CCNC(=O)Nc1cc(-c2nc(C(F)(F)F)cs2)c(-c2cc(-c3n[nH]c(=O)o3)cnc2N)cn1 [Example 260, 1-(2′-amino-5′-(5-oxo-4,5-dihydro-1,3,4-oxadiazol-2-yl)-4-(4-(trifluoromethyl)thiazol-2-yl)-3,3′-bipyridin-6-yl)-3-ethylurea] | 96
CCNC(=O)Nc1cc(-c2nc(C(F)(F)F)cs2)c(-c2cc(-c3n[nH]c(=O)o3)nc(N3CCOCC3)c2)cn1 [Example 86, 1-ethyl-3-(2′-morpholino-6′-(5-oxo-4,5-dihydro-1,3,4-oxadiazol-2-yl)-4-(4-(trifluoromethyl)thiazol-2-yl)-3,4′-bipyridin-6-yl)urea] | 97
CCNC(=O)Nc1cc(-c2nc(-c3ccccc3)cs2)c(-c2nc(-c3ncnn3C)c(-c3n[nH]c(=O)o3)s2)cn1 [Example 200] | 93
CCNC(=O)Nc1cc(-c2nc(C(F)(F)F)cs2)c(-c2cncc(-c3n[nH]c(=O)[nH]3)c2)cn1 [Example 135, 1-Ethyl-3-(5′-(5-oxo-4,5-dihydro-1H-1,2,4-triazol-3-yl)-4-(4-(trifluoromethyl)thiazol-2-yl)-3,3′-bipyridin-6-yl)urea] | 101
CCNC(=O)Nc1cc(-c2nc(-c3ccccc3)cs2)c(-c2cc(-c3n[nH]c(=O)o3)nc(N3CCOCC3)c2)cn1 [Example 88] | 94
CCNC(=O)Nc1cc(-c2nc(C(F)(F)F)cs2)c(-c2cc(OCC)nc(-c3nnc(C)o3)c2)cn1 [Example 76, 1-(2′-ethoxy-6′-(5-methyl-1,3,4-oxadiazol-2-yl)-4-(4-(trifluoromethyl)thiazol-2-yl)-3,4′-bipyridin-6-yl)-3-ethylurea] | 100
CCNC(=O)Nc1cc(-c2nc(C(F)(F)F)cs2)c(-c2cncc(-c3nnc([C@H](C)O)o3)c2)cn1 [Example 237, (S)-1-ethyl-3-(5′-(5-(1-hydroxyethyl)-1,3,4-oxadiazol-2-yl)-4-(4-(trifluoromethyl)thiazol-2-yl)-3,3′-bipyridin-6-yl)urea] | 110
CCNC(=O)Nc1cc(-c2nc(C(F)(F)F)cs2)c(-c2ccnc(-c3nnc([C@@H]4COCCN4)o3)c2)cn1 [Example 242, (S)-1-ethyl-3-(2′-(5-(morpholin-3-yl)-1,3,4-oxadiazol-2-yl)-4-(4-(trifluoromethyl)thiazol-2-yl)-3,4′-bipyridin-6-yl)urea] | 118
CCNC(=O)Nc1cc(-c2nc(C(F)(F)F)cs2)c(-c2ccc[n+]([O-])c2)cn1 [Example 15, 6′-(3-Ethylureido)-4′-(4-(trifluoromethyl)thiazol-2-yl)-3,3′-bipyridine 1-oxide] | 93
CCNC(=O)Nc1cc(-c2nc(C(F)(F)F)cs2)c(-c2ccnc(-c3nnc([C@@H](NC)C(C)C)o3)c2)cn1 [Example 244, (S)-1-ethyl-3-(2′-(5-(2-methyl-1-(methylamino)propyl)-1,3,4-oxadiazol-2-yl)-4-(4-(trifluoromethyl)thiazol-2-yl)-3,4′-bipyridin-6-yl)urea] | 96

Structure (SMILES) | inhibition at 1 µM [%]
CCNC(=O)Nc1cc(-c2nc(C(F)(F)F)cs2)c(-c2cncc(-c3n[nH]c(=O)o3)n2)cn1 [Example 35, 1-ethyl-3-(5-(6-(5-oxo-4,5-dihydro-1,3,4-oxadiazol-2-yl)pyrazin-2-yl)-4-(4-(trifluoromethyl)thiazol-2-yl)pyridin-2-yl)urea] | 103
CCNC(=O)Nc1cc(N2CC(C)OC(C)C2)c(-c2cncc(-c3n[nH]c(=O)o3)c2)cn1 (stereo not drawn) [Example 149] | 94
CCNC(=O)Nc1cc(-c2nc(C(F)(F)F)cs2)c(-c2cncc(-c3nnc(N(CC)CC)o3)c2)cn1 [Example 267, 1-(5′-(5-(diethylamino)-1,3,4-oxadiazol-2-yl)-4-(4-(trifluoromethyl)thiazol-2-yl)-3,3′-bipyridin-6-yl)-3-ethylurea] | 98
CCNC(=O)Nc1cc(-c2nc(-c3cccc(OC)n3)cs2)c(-c2nc(-c3ncnn3C)c(-c3n[nH]c(=O)o3)s2)cn1 [Example 251, 1-ethyl-3-(4-(4-(6-methoxypyridin-2-yl)thiazol-2-yl)-5-(4-(1-methyl-1H-1,2,4-triazol-5-yl)-5-(5-oxo-4,5-dihydro-1,3,4-oxadiazol-2-yl)thiazol-2-yl)pyridin-2-yl)urea] | 99
CCNC(=O)Nc1cc(-c2nc(C(F)(F)F)cs2)c(-c2csc(N3CCOCC3)n2)cn1 [Example 30, 1-ethyl-3-(5-(2-morpholinothiazol-4-yl)-4-(4-(trifluoromethyl)thiazol-2-yl)pyridin-2-yl)urea] | 105
CCNC(=O)Nc1cc(-c2cc(C(F)(F)F)nn2C)c(-c2cncc(-c3n[nH]c(=O)o3)c2)cn1 [Example 146] | 97
CCNC(=O)Nc1cc(-c2nc(C(F)(F)F)cs2)c(-c2cncc(-c3nnc([C@@H]4COCCN4)o3)c2)cn1 [Example 239, (S)-1-ethyl-3-(5′-(5-(morpholin-3-yl)-1,3,4-oxadiazol-2-yl)-4-(4-(trifluoromethyl)thiazol-2-yl)-3,3′-bipyridin-6-yl)urea] | 94
CCNC(=O)Nc1cc(-c2nc(C(F)(F)F)cs2)c(-c2ccnc(-c3nnc([C@H]4COCCN4)o3)c2)cn1 [Example 243, (R)-1-ethyl-3-(2′-(5-(morpholin-3-yl)-1,3,4-oxadiazol-2-yl)-4-(4-(trifluoromethyl)thiazol-2-yl)-3,4′-bipyridin-6-yl)urea] | 122
CCNC(=O)Nc1cc(-c2nc(C(F)(F)F)cs2)c(-c2cc(OCCN(C)C)nc(-c3n[nH]c(=O)o3)c2)cn1 [Example 92, 1-(2′-(2-(dimethylamino)ethoxy)-6′-(5-oxo-4,5-dihydro-1,3,4-oxadiazol-2-yl)-4-(4-(trifluoromethyl)thiazol-2-yl)-3,4′-bipyridin-6-yl)-3-ethylurea] | 104
O=C(Nc1cc(-c2nc(C(F)(F)F)cs2)c(-c2cncc(-c3n[nH]c(=O)o3)c2)cn1)NC1CCCCC1 [Example 46, 1-cyclohexyl-3-(5′-(5-oxo-4,5-dihydro-1,3,4-oxadiazol-2-yl)-4-(4-(trifluoromethyl)thiazol-2-yl)-3,3′-bipyridin-6-yl)urea] | -1
CCNC(=O)Nc1cc(-c2nc(-c3ccccc3)cs2)c(-c2nc(-c3ncnn3C)c(-c3nnc(C)o3)s2)cn1 [Example 97, 1-ethyl-3-(5-(5-(5-methyl-1,3,4-oxadiazol-2-yl)-4-(1-methyl-1H-1,2,4-triazol-5-yl)thiazol-2-yl)-4-(4-phenylthiazol-2-yl)pyridin-2-yl)urea] | 99
CCNC(=O)Nc1cc(-c2nc(C(F)(F)F)cs2)c(-c2cnc(N)c(-c3nnc(C)o3)c2)cn1 [Example 258, 1-(6′-amino-5′-(5-methyl-1,3,4-oxadiazol-2-yl)-4-(4-(trifluoromethyl)thiazol-2-yl)-3,3′-bipyridin-6-yl)-3-ethylurea] | 96
CCNC(=O)Nc1cc(-c2nc(C(F)(F)F)cs2)c(-c2cncc(-c3nn(C(=O)N4CCCC4)c(=O)o3)c2)cn1 [Example 159] | 97
CCNC(=O)Nc1cc(-c2nc(C(F)(F)F)c(CNC3CCCCC3)s2)c(-c2cncc(-c3n[nH]c(=O)o3)c2)cn1 [Example 52, 1-(4-(5-((cyclohexylamino)methyl)-4-(trifluoromethyl)thiazol-2-yl)-5′-(5-hydroxy-1,3,4-oxadiazol-2-yl)-3,3′-bipyridin-6-yl)-3-ethylurea hydrochloride] | 108
CCNC(=O)Nc1cc(-c2nc(C(F)(F)F)cs2)c(-c2cncc(-c3nnc(N4CC[C@@H](O)C4)o3)c2)cn1 [Example 178] | 97
CCNC(=O)Nc1cc(-c2nc(-c3cnn(C)c3)cs2)c(-c2cncc(-c3n[nH]c(=O)o3)n2)cn1 [Example 206] | 99

Reference: US20120101100A1 (priority 2008, published 2012)
